Data from patent publication US8247211B2, “Glycopeptide antibiotics” (American Cyanamid Company, priority 2001, dated 2012).
In brackets after ≈: the same amount, converted by molar mass.

Experiments:
Assay in all cases: In vitro antibacterial evaluation: minimum inhibitory concentration (MIC), broth dilution method
Assay type in all cases: cell-based
Enterococcus sp. = conditions: 18 hours at 35° C.
Outline: (§1)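 Broth dilution per NCCLS M7-A2 in Muller-Hinton II […], inoculum 5×10^5 CFU/mL, antibiotic tested over 64-0.06 μg/mL. MIC is taken as the lowest concentration that inhibits growth. Panel includes recent clinical isolates resistant to methicillin, penicillin and/or vancomycin.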

Streptococcus sp. = conditions: 18 hours at 35° C.
Outline: as §1

Escherichia coli = conditions: 18 hours at 35° C.
Outline: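 NCCLS M7-A2 broth dilution; Muller-Hinton II […]; 5×10^5 CFU/mL; 64-0.06 μg/mL. MIC = lowest concentration with no growth.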

Staphylococcus sp. = tested on: Staphylococcus sp.
Outline: as §1

[1] = broth dilution, inoculum 5×10^5 CFU/mL

MIC Enterococcus avium (GC 4558) (Enterococcus sp.; Enterococcus avium (GC 4558)): 32 mg/L (≈ 21.2 µM)
MIC Enterococcus faecalis (ATCC 29212) (Enterococcus sp.; Enterococcus faecalis (ATCC 29212)): >64 mg/L
MIC Enterococcus faecalis (GC 2242) (Enterococcus sp.; Enterococcus faecalis (GC 2242)): >64 mg/L
MIC Enterococcus faecalis (GC 2691) (Enterococcus sp.; Enterococcus faecalis (GC 2691)): >64 mg/L
MIC Enterococcus faecalis (GC 3059) (Enterococcus sp.; Enterococcus faecalis (GC 3059)): >64 mg/L
MIC Enterococcus faecalis (GC 4552) (Enterococcus sp.; Enterococcus faecalis (GC 4552)): >64 mg/L
MIC Enterococcus faecalis (GC 4553) (Enterococcus sp.; Enterococcus faecalis (GC 4553)): 64 mg/L (≈ 42.4 µM)
MIC Enterococcus faecalis (GC 4554) (Enterococcus sp.; Enterococcus faecalis (GC 4554)): >64 mg/L
MIC Enterococcus faecalis (GC 6189) (Enterococcus sp.; Enterococcus faecalis (GC 6189)): >64 mg/L
MIC Enterococcus faecium (GC 2243) (Enterococcus sp.; Enterococcus faecium (GC 2243)): 64 mg/L (≈ 42.4 µM)
MIC Enterococcus faecium (GC 4556) (Enterococcus sp.; Enterococcus faecium (GC 4556)): >64 mg/L
MIC Enterococcus faecium (GC 4557) (Enterococcus sp.; Enterococcus faecium (GC 4557)): 8 mg/L (≈ 5.3 µM)
MIC Enterococcus avium (GC 4558) (Enterococcus sp.; [1]): 32 mg/L (≈ 21.2 µM)
MIC Enterococcus faecalis (ATCC 29212) (Enterococcus sp.; [1]): >64 mg/L
MIC Enterococcus faecalis (GC 2242) (Enterococcus sp.; [1]): >64 mg/L
MIC Enterococcus faecalis (GC 2691) (Enterococcus sp.; [1]): >64 mg/L
MIC Enterococcus faecalis (GC 3059) (Enterococcus sp.; [1]): >64 mg/L
MIC Enterococcus faecalis (GC 4552) (Enterococcus sp.; [1]): >64 mg/L
MIC Enterococcus faecalis (GC 4553) (Enterococcus sp.; [1]): 64 mg/L (≈ 42.4 µM)
MIC Enterococcus faecalis (GC 4554) (Enterococcus sp.; [1]): >64 mg/L
MIC Enterococcus faecalis (GC 6189) (Enterococcus sp.; [1]): >64 mg/L
MIC Enterococcus faecium (GC 2243) (Enterococcus sp.; [1]): 64 mg/L (≈ 42.4 µM)
MIC Enterococcus faecium (GC 4556) (Enterococcus sp.; [1]): >64 mg/L
MIC Enterococcus faecium (GC 4557) (Enterococcus sp.; [1]): 8 mg/L (≈ 5.3 µM)
MIC Streptococcus agalactiae (GC 4564) (Streptococcus sp.; Streptococcus agalactiae (GC 4564)): >64 mg/L
MIC Streptococcus pneumoniae (ATCC 6301) (Streptococcus sp.; Streptococcus pneumoniae (ATCC 6301)): 64 mg/L (≈ 42.4 µM)
MIC Streptococcus pneumoniae (GC 1894) (Streptococcus sp.; Streptococcus pneumoniae (GC 1894)): 64 mg/L (≈ 42.4 µM)
MIC Streptococcus pneumoniae (GC 4565) (Streptococcus sp.; Streptococcus pneumoniae (GC 4565)): 64 mg/L (≈ 42.4 µM)
MIC Streptococcus pyogenes (GC 4563) (Streptococcus sp.; Streptococcus pyogenes (GC 4563)): 32 mg/L (≈ 21.2 µM)
MIC Streptococcus agalactiae (GC 4564) (Streptococcus sp.; [1]): >64 mg/L
MIC Streptococcus pneumoniae (ATCC 6301) (Streptococcus sp.; [1]): 64 mg/L (≈ 42.4 µM)
MIC Streptococcus pneumoniae (GC 1894) (Streptococcus sp.; [1]): 64 mg/L (≈ 42.4 µM)
MIC Streptococcus pneumoniae (GC 4565) (Streptococcus sp.; [1]): 64 mg/L (≈ 42.4 µM)
MIC Streptococcus pyogenes (GC 4563) (Streptococcus sp.; [1]): 32 mg/L (≈ 21.2 µM)
MIC Escherichia coli (ATCC 25922) (Escherichia coli; Escherichia coli (ATCC 25922)): 64 mg/L (≈ 42.4 µM)
MIC Escherichia coli (GC 4559) (Escherichia coli; Escherichia coli (GC 4559)): 64 mg/L (≈ 42.4 µM)
MIC Escherichia coli (GC 4560) (Escherichia coli; Escherichia coli (GC 4560)): 8 mg/L (≈ 5.3 µM)
MIC Staphylococcus aureus (ATCC 29213) (Staphylococcus sp.; strain ATCC 29213): >64 mg/L
MIC Staphylococcus aureus (GC 1131) (Staphylococcus sp.; strain GC 1131): >64 mg/L
MIC Staphylococcus aureus (GC 3051) (Staphylococcus sp.; strain GC 3051): >64 mg/L
MIC Staphylococcus aureus (GC 3053) (Staphylococcus sp.; strain GC 3053): >64 mg/L
MIC Staphylococcus aureus (GC 4541) (Staphylococcus sp.; strain GC 4541): 64 mg/L (≈ 42.4 µM)
MIC Staphylococcus aureus (GC 4542) (Staphylococcus sp.; strain GC 4542): >64 mg/L
MIC Staphylococcus aureus-SMITH (GC 4543) (Staphylococcus sp.; strain GC 4543): >64 mg/L
MIC Staphylococcus aureus (GC 4544) (Staphylococcus sp.; strain GC 4544): >64 mg/L
MIC Staphylococcus aureus (GC 4545) (Staphylococcus sp.; strain GC 4545): 64 mg/L (≈ 42.4 µM)
MIC Coagulase Negative Staphylococcus (GC 4547) (Staphylococcus sp.; strain GC 4547): 32 mg/L (≈ 21.2 µM)
MIC Coagulase Negative Staphylococcus (GC 4548) (Staphylococcus sp.; strain GC 4548): 64 mg/L (≈ 42.4 µM)
MIC Coagulase Negative Staphylococcus (GC 4549) (Staphylococcus sp.; strain GC 4549): 64 mg/L (≈ 42.4 µM)
MIC Coagulase Negative Staphylococcus (GC 4551) (Staphylococcus sp.; strain GC 4551): >64 mg/L
MIC Coagulase Negative Staphylococcus (GC 6257) (Staphylococcus sp.; strain GC 6257): 64 mg/L (≈ 42.4 µM)
Structure (SMILES): CC(c1ccccc1)C1NC(=O)CNC(=O)C(CO)NC(=O)C(C(O)C2CNC(=N)N2C2OC(CO)C(O)C(O)C2O)NC(=O)C(C(O)C2CNC(=N)N2)NC(=O)C(Cc2ccc(OC3OC(CO)C(OC4OC5COC(c6ccccc6)OC5C(O)C4O)C(O)C3O)c(I)c2)NC1=O (stereo not drawn) [Example 196, Cyclo[glycyl-β-methylphenylalanyl-O-[4-O-(4,6-O-benzylidenehexopyranosyl)hexopyranosyl]-3-iodotyrosyl-3-(2-iminoimidazolidin-4-yl)seryl-3-(3-hexopyranosyl-2-iminoimidazolidin-4-yl)-serylseryl]]
MIC Staphylococcus haemolyticus (GC 4546) (Staphylococcus sp.; strain GC 4546): 32 mg/L (≈ 21.2 µM)
